Experimental data published in patent US6002008A, “Substituted 3-cyano quinolines” (American Cyanamid Company, priority 1998, dated 1999).

Experiments:
Experiment in all cases: Inhibition of cancer cell growth as measured by cell number
Type in all cases: cell-based, human
SW620 = conditions: SW620, 48 hours, Table 8
Source text: (§1) The cell lines were chosen since they overexpressed epidermal growth factor receptor (EGFR) (i.e. A431) or HER2/neu (SKBR3), or had little to no expression of the these receptors (SW620, LOX, MCF7).

A431 = conditions: A431, 48 hours, Table 8
Source text: as §1

SKBR3 = conditions: SKBR3, 48 hours, Table 8
Source text: as §1

- Inhibition of Cancer Cell Growth as Measured by Cell Number (IC50) (SW620): 0.1 mg/L
- Inhibition of Cancer Cell Growth as Measured by Cell Number (IC50) (A431): 0.03 mg/L
- Inhibition of Cancer Cell Growth as Measured by Cell Number (IC50) (SKBR3): 0.03 mg/L
SMILES: CCCN(CC#CC(=O)Nc1ccc2ncc(C#N)c(Nc3cccc(Br)c3)c2c1)CCC [Example 170, N-{4-[(3-Bromophenyl)amino]-3-cyano-6-quinolinyl}-4-dipropylamino-2-butynamide]
